Structures can show the parent of a compound that is named as a salt. Where two headings read alike, the source gives them in different places. Marks after values point to notes of the source that are not given here. Bounds are passed on as bounds.

What all share (assay type): in vivo
For test [1], the system named is bed bugs, Cimex lectularius. The test can be described thus: Bed bug repellency bioassay, box arena (formulations of compound 35). The method, then: (§1) Per individual bioassay, 10 adult or late instar nymph bed bugs, Cimex lectularius, of mixed sex. Bed bugs sourced from wild, field populations and tested within 2 weeks of capture. Subjects were tested one time, only.
(iii) Box arenas consisted of covered plastic “Rubbermaid” box where the cover was modified to fit a mesh screen to allow movement of air between the test arena interior and outside. Test substrates were placed at opposite ends of the box arena. Dimensions of the box were 304.8 mm long by 200 mm wide by 80 mm in depth.
(§2) Immediately after the substrates were infused with test compounds and control solvents, test subjects were introduced to the centre of the selected observation arena. […] Only subjects that were in close contact with the treatment or control substrates were recorded. Subjects elsewhere in the arena were not included in repellency calculations. Percentage repellency was calculated based on a modification of Abbott's formula to account for negative repellency (attraction). Specifically: IF(C>=T,(C−T)/C*100,(T−C)/T*−100)
(§3) where C is number of test subjects in contact with control substrate and T is number of test subjects in contact with treatment substrate.
Compound 35 was formulated as a spray formulation in which the compound was dissolved in isopropyl alcohol (IPA) at concentrations of 1%, 2.5% and 5%.
In addition, compound 35 was tested on plastic slow-release beads. The beads were cured with either: 1) 20% (w/w) neat compound 35, or 2) 20% (w/w) of a 1:1 mixture of compound 35 and wintergreen oil (methyl salicylate).
The formulations were tested as described in Example 1 using the box configuration.

Test [2] deals with bed bugs, Cimex lectularius. The test can be described thus: Bed bug repellency bioassay, glass tube olfactometer arena. The following applies: for pest or weed control at 25 % strength / pest or weed control at 1 % / pest or weed control at 5 % strength: Cimex lectularius; for pest or weed control at 25 % strength: 20 uL; for pest or weed control at 5 % strength: 50 uL. The method, then:
as §1
(ii) Olfactometer consisting of a glass tube. Tube ends were plugged to prevent egress of test subjects. Test substrates were placed at opposite ends of the tube. Tube Olfactometer includes a port in the centre for introduction of test subjects. Dimensions of the tube were 15.2 mm in diameter by 304.8 mm long.
Compounds were either purchased from commercial sources or synthesized using conventional synthetic organic chemistry techniques (see, for example, Examples 5 to 7). Some compounds (014, 058 and 080) were tested in duplicate (one version from commercial sources and one synthesized) and the best performance is reported in the Tables below. Of the tested compounds reported in the Tables below, the following compounds were synthesized: 006, 010, 017, 018, 040, 041 to 043, 045, 046, 048, 049, 058, 067 to 075, 079, 080 to 082, 089 and 090.
Test compounds consisted of a control and treatment. The treatment consisted of a test compound mixed as a percentage w/w in a suitable solvent. The test compound solvent itself was used as a control. Solvents used were hexane, hexane:methanol, or dichloromethane:methanol.
(i) Gauze cut to a standard size and folded upon itself to provide harbourage for test subjects.
(iii) Absorbent polymer “aroma” beads that were given sufficient time to fully absorb test compounds and control solvents.
In the case of gauze and filter paper substrates, control solvents and test mixtures of known concentrations and volumes were dispensed directly onto substrates using a pipette. For polymer beads, beads were mixed w/w with solvent or test compound in a small glass jar. The jars were occasionally agitated to facilitate soaking of the beads.
as §2, §3
All average repellency results reported in the table are based on 3 replicates for each reported trial, with each trial involving at least 3 observation periods. The observation periods were short-term (30 min), medium-term (1-2 hours), and long-term (24-48 hours). The “overall average” reported in the table represents the average for 3 replicates for 3 observation periods. […]
To determine whether compounds could be combined in the repellent compositions, compounds 14 and 35 were each tested at a concentration of 5% (w/w), and as a combination comprising each compound at a concentration of 2.5% (w/w). The formulations were tested as described in Example 1 using the olfactometer configuration.

The test system of test [3] is bed bugs, Cimex lectularius. The test can be described thus: Bed bug repellency bioassay, Petri dish arena. The following applies: filter paper, 100 uL, 1% v/v in hexane, average of 3 replicates x 3 observation periods.
Text: (i) Petri Dish arenas consisted of a standard plastic, covered Petri Dish where test substrates were placed at opposite sides of the dish. Dimensions of the dish were 101.6 mm in diameter by 25.4 mm in depth.
(ii) Filter paper of standard size and folded as per (i).
In the case of gauze and filter paper substrates, control solvents and test mixtures of known concentrations and volumes were dispensed directly onto substrates using a pipette. […]
Immediately after the substrates were infused with test compounds and control solvents, test subjects were introduced to the centre of the selected observation arena. […] Only subjects that were in close contact with the treatment or control substrates were recorded. […] Percentage repellency was calculated based on a modification of Abbott's formula to account for negative repellency (attraction). […]
The mark [4] stands for this setting: beads, 25% w/w in hexane, average of 3 replicates x 3 observation periods, read-out: % Repellency (% R), Overall Average.
Where [5] appears, read: gauze, 10 uL, 1% v/v in hexane, average of 3 replicates x 3 observation periods, read-out: % Repellency (% R), Overall Average.
Setting [6] is: gauze, 5% w/v in hexane, average of 3 replicates x 3 observation periods, read-out: % Repellency (% R), Overall Average.

With `CCC(=O)OCc1ccco1` [Compound 035, Furfuryl propionate], the “% R (Overall Average)” value was 92% in test [1] (IPA spray, 1% (w/w) compound 35 in isopropyl alcohol); 94% in test [1] (IPA spray, 2.5% (w/w) compound 35 in isopropyl alcohol); 100% in test [1] (IPA spray, 5% (w/w) compound 35 in isopropyl alcohol); 100% in test [1] (plastic slow-release beads cured with 20% (w/w) neat compound 35); 100% in test [1] (plastic slow-release beads, 10% compound 35 + 10% wintergreen oil (methyl salicylate)); 95% in test [2] (Example 2, single compound at 5% (w/w)). Also, the “repellency of formulations (in words)” value in test [1] (both formulation formats (IPA spray, plastic beads), all concentrations tested) was “excellent repellency”. For the same compound, the pest or weed control at 25 % strength in test [2] (setting [4]) was > 80%.

`COC(=O)CCC=O` [Compound 052, Methyl 4-oxobutanoate]: the pest or weed control at 25 % strength was -17% in test [2] (setting [4]); 100% in test [2] (beads, 25% w/w in hexane, best single observation (one repetition, one time), read-out: % Repellency, At least One Time >50%); 11% in test [2] (observation period T1, beads, 25% w/w in hexane, read-out: % Repellency T1 (average of 3 repetitions)); -50% in test [2] (observation period T2, beads, 25% w/w in hexane, read-out: % Repellency T2 (average of 3 repetitions)); -11% in test [2] (observation period T3, beads, 25% w/w in hexane, read-out: % Repellency T3 (average of 3 repetitions)).

Take `CN(C)C(=O)CCC(=O)O` [Compound 053, 4-(Dimethylamino)-4-Oxobutanoic acid]: the pest or weed control at 1 % in test [2] (setting [5]) was determined as 52%.

Take `CCC(=O)C(=O)OC` [Compound 054, Methyl-2-oxobutanoate]: the pest or weed control at 1 % in test [2] (setting [5]) is > 80%.

As for `CCOC(=O)CCC(=O)O` [Compound 055, Mono-ethyl succinate], the “% Repellency (% R), Overall Average” value in test [3] is given as 73%.

Regarding `COC(=O)/C=C/C(C)=O` [Compound 056, Methyl trans-4-oxo-2-pentenoate], the pest or weed control at 5 % strength in test [2] (setting [6]) worked out at 53%.

On to `CCOC(=O)/C=C(\C)C=O` [Compound 057, Ethyl 3-methyl-4-oxocrotonate], for which the pest or weed control at 25 % strength in test [2] (setting [4]) was > 80%.

Consider `COC(=O)/C=C/C(=O)OC` [Compound 058, dimethyl fumarate], for which the pest or weed control at 5 % strength in test [2] (setting [6]) was > 80%.

Turning to `CCC(=O)OCC1CCCO1` (stereo not shown) [Compound 060, Tetrahydro furfuryl propionate], the pest or weed control at 25 % strength in test [2] (setting [4]) turned out to be 78%.

For the compound `CCCCCCCCCCC(C)=O` [Compound 061, 2-dodecanone], the pest or weed control at 5 % strength in test [2] (setting [6]) is > 80%.

In the case of `CCC(=O)CC` [Compound 062, 3-pentanone], the pest or weed control at 5 % strength in test [2] (setting [6]) is 10%; in test [2] (gauze, 5% w/v in hexane, best single observation (one repetition, one time), read-out: % Repellency, At least One Time >50%), 89%; in test [2] (observation period T1, gauze, 5% w/v in hexane, read-out: % Repellency T1 (average of 3 repetitions)) it was -11%; in test [2] (observation period T2, gauze, 5% w/v in hexane, read-out: % Repellency T2 (average of 3 repetitions)), -3%; in test [2] (observation period T3, gauze, 5% w/v in hexane, read-out: % Repellency T3 (average of 3 repetitions)) it was 43%.

Take `CCC(=O)/C=C/C(=O)CC` [Compound 067, (E)-oct-4-ene-3,6-dione]: the pest or weed control at 5 % strength in test [2] (gauze, 5% w/v in hexane:methanol (1:1), average of 3 replicates x 3 observation periods, read-out: % Repellency (% R), Overall Average) is > 80%.

On to `CCOC(=O)/C=C/C(=O)CC` [Compound 068, (E)-ethyl 4-oxohex-2-enoate], for which the pest or weed control at 1 % in test [2] (setting [5]) is 43%; in test [2] (observation period T1, gauze, 10 uL, 1% v/v in hexane, read-out: % Repellency T1 (average of 3 repetitions)), 30%; in test [2] (observation period T2, gauze, 10 uL, 1% v/v in hexane, read-out: % Repellency T2 (average of 3 repetitions)), 32%; in test [2] (observation period T3, gauze, 10 uL, 1% v/v in hexane, read-out: % Repellency T3 (average of 3 repetitions)), 65%. For the same compound, in test [2] (gauze, 10 uL, 1% v/v in hexane, best average over 3 replicates for a single time period), the “% Repellency, At least One Average >50%” value amounted to 65%.

In the case of `CC(O)c1ccco1` (stereo not shown) [Compound 069, 1-(furan-2-yl)ethanol], in test [2] (setting [4]), the pest or weed control at 25 % strength was > 80%.

`CCC(=O)/C=C/C(=O)O` [Compound 070, (E)-4-oxohex-2-enoic acid]: the pest or weed control at 1 % in test [2] (gauze, 10 uL, 1% v/v in hexane:methanol (1:1), average of 3 replicates x 3 observation periods, read-out: % Repellency (% R), Overall Average) came out at 74%.

Consider `CC(C)C(O)c1ccco1` (stereo not shown) [Compound 071, 1-(furan-2-yl)-2-methylpropan-1-ol], for which the pest or weed control at 1 % in test [2] (setting [5]) was found to be 57%.

Turning to `CCC(C)C(O)c1ccco1` (stereo not shown) [Compound 072], in test [2] (setting [6]), the pest or weed control at 5 % strength came out at 79%.

Take `CCCCC(O)c1ccco1` (stereo not shown) [Compound 073, 1-(furan-2-yl) pentan-1-ol]: in test [2] (setting [6]), the pest or weed control at 5 % strength is > 80%.

Turning to `CCC(=O)/C=C(\C)C(C)=O` [Compound 074, (E)-3-methylhept-3-ene-2,5-dione], in test [2] (beads, 25% w/w in dichloromethane:methanol (1:1), average of 3 replicates x 3 observation periods, read-out: % Repellency (% R), Overall Average), the pest or weed control at 25 % strength was > 80%.

On to `CCC(O)c1ccco1` (stereo not shown) [Compound 075, 1-(furan-2-yl) propan-1-ol], for which the pest or weed control at 1 % in test [2] (setting [5]) stood at 79%.

Turning to `CCOC(=O)CCC(C)=O` [Compound 076, ethyl levulinate], the pest or weed control at 5 % strength in test [2] (setting [6]) was 69%.

Regarding `C=CC(O)c1ccco1` (stereo not shown) [Compound 078, 2-Furanmethanol, a-ethenyl-], the pest or weed control at 25 % strength in test [2] (setting [4]) is > 80%.

Turning to `CCOC(C#CC(=O)CC)OCC` [Compound 079, 6,6-diethoxyhex-4-yn-3-one], in test [2] (setting [6]), the pest or weed control at 5 % strength was > 80%.

As for `CC(=O)c1ccco1` [Compound 080, 2-Furyl methyl ketone], the pest or weed control at 5 % strength in test [2] (setting [6]) is > 80%.

Take `CC(C)C(=O)c1ccco1` [Compound 082, 1-(2-furyl)-2-methyl-propan-1-one]: the pest or weed control at 25 % strength in test [2] (setting [4]) was > 80%.

For `CC(=O)OCc1ccco1` [Compound 084, Furfuryl acetate], in test [2] (setting [4]), the pest or weed control at 25 % strength amounted to 61%.

With `CCOC(=O)c1ccco1` [Compound 085, Ethyl 2-furoate], the pest or weed control at 25 % strength in test [2] (setting [4]) stood at 73%.

In the case of `CCCC(=O)c1ccco1` [Compound 086, 2-butyrylfuran], the pest or weed control at 25 % strength in test [2] (beads, 25% w/w in hexane:methanol (1:1), average of 3 replicates x 3 observation periods, read-out: % Repellency (% R), Overall Average) was > 80%.

As to `CCC(C)C(=O)c1ccco1` (stereo not shown) [Compound 089, 1-furan-2-yl-2-methylbutan-1-one], the pest or weed control at 5 % strength in test [2] (setting [6]) is > 80%.

With `CCCCC(=O)c1ccco1` [Compound 090, 1-Pentanone, 1-(2-furanyl)-], in test [2] (setting [6]), the pest or weed control at 5 % strength is > 80%.

The record behind these values is patent US11116212B2, “Carbonyl containing compounds for controlling and repelling Cimicidae populations” (SemiosBio Technologies Inc., priority 2011, dated 2021).
